Measured values published in US9695155B2, “Herbicidal substituted pyrimidinyloxy benzene compounds” (E. I. DU PONT DE NEMOURS AND COMPANY, priority 2013, dated 2017).

Columns and labels:
kochia = assay: Test E preemergence; assay type: in vivo, Kochia scoparia; conditions: for Kochia plant response rating: scale 0 to 100 (0 no effect, 100 complete control); for Plant response rating, Kochia: 125 g ai/ha, scale 0 to 100, 0 no effect, 100 complete control
Method in brief: (§1)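 Response was scored visually on a 0-100 scale (100 = complete control) versus controls after 14 to 21 days in the greenhouse. Test chemicals, formulated with surfactant in a non-phytotoxic solvent mixture, had been applied preemergence to seeds in silt loam soil or postemergence to 1- to 4-leaf plants in potting medium.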

Brazilian crabgrass = assay: Test E preemergence; assay type: in vivo, Digitaria horizontalis; conditions: for Crabgrass, Brazil plant response rating: scale 0 to 100 (0 no effect, 100 complete control); for Plant response rating, Crabgrass, Brazil: 125 g ai/ha, scale 0 to 100, 0 no effect, 100 complete control
Method in brief: as §1

arrowleaf sida = assay: Test E preemergence; assay type: in vivo, Sida rhombifolia; conditions: for Arrowleaf Sida plant response rating: scale 0 to 100 (0 no effect, 100 complete control); for Plant response rating, Arrowleaf Sida: scale 0 to 100, 0 no effect, 100 complete control
Method in brief: as §1

hairy beggarticks = assay: Test E preemergence; assay type: in vivo, Bidens pilosa; conditions: for Beggarticks plant response rating: scale 0 to 100 (0 no effect, 100 complete control); for Plant response rating, Beggarticks: scale 0 to 100, 0 no effect, 100 complete control
Method in brief: as §1

nightshade = assay: Test E preemergence; assay type: in vivo, Solanum ptycanthum; conditions: for Nightshade plant response rating: scale 0 to 100 (0 no effect, 100 complete control); for Plant response rating, Nightshade: 125 g ai/ha, scale 0 to 100, 0 no effect, 100 complete control
Method in brief: as §1

johnsongrass = assay: Test E preemergence; assay type: in vivo, Sorghum halepense; conditions: for Johnsongrass plant response rating: scale 0 to 100 (0 no effect, 100 complete control); for Plant response rating, Johnsongrass: 125 g ai/ha, scale 0 to 100, 0 no effect, 100 complete control
Method in brief: as §1

galium = assay: Test A postemergence; assay type: in vivo, Galium aparine; conditions: 0 to 100 scale where 0 is no effect and 100 is complete control
Method in brief: (§2)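 Injury scores run from 0, no effect, to 100, complete control, judged by eye against untreated plants roughly 10 days after treatment. Chemicals carried a surfactant in a non-phytotoxic solvent and went onto loam–sand soil preemergence or onto one- to two-leaf seedlings postemergence.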

Italian ryegrass = assay: Test A postemergence; assay type: in vivo, Lolium multiflorum; conditions: 0 to 100 scale where 0 is no effect and 100 is complete control
Method in brief: as §2

wild poinsettia = assay: Test E preemergence; assay type: in vivo, Euphorbia heterophylla; conditions: for Poinsettia, Wild plant response rating: scale 0 to 100 (0 no effect, 100 complete control); for Plant response rating, Poinsettia, Wild: 125 g ai/ha, scale 0 to 100, 0 no effect, 100 complete control
Method in brief: as §1

dayflower = assay: Test E preemergence; assay type: in vivo, Commelina virginica; conditions: for Dayflower, VA plant response rating: scale 0 to 100 (0 no effect, 100 complete control); for Plant response rating, Dayflower, VA: 125 g ai/ha, scale 0 to 100, 0 no effect, 100 complete control
Method in brief: as §1

field bindweed = assay: Test E preemergence; assay type: in vivo, Convolvulus arvensis; conditions: for Field Bindweed plant response rating: scale 0 to 100 (0 no effect, 100 complete control); for Plant response rating, Field Bindweed: 125 g ai/ha, scale 0 to 100, 0 no effect, 100 complete control
Method in brief: as §1

ragweed = assay: Test A postemergence; assay type: in vivo, Ambrosia elatior; conditions: 0 to 100 scale where 0 is no effect and 100 is complete control
Method in brief: as §2

velvetleaf = assay: Test E preemergence; assay type: in vivo, Abutilon theophrasti; conditions: for Velvetleaf plant response rating: scale 0 to 100 (0 no effect, 100 complete control); for Plant response rating, Velvetleaf: 125 g ai/ha, scale 0 to 100, 0 no effect, 100 complete control
Method in brief: as §1

`N#Cc1cccc(Oc2ncc(F)cn2)c1-n1cc(I)cn1` [Compound 86] was tested, and the “Kochia plant response rating” value (kochia; 16 g ai/ha) was 0, the “Kochia plant response rating” value (kochia; 31 g ai/ha) was 90 and the “Kochia plant response rating” value (kochia; 62 g ai/ha) was 100. For the same molecule, the “Plant response rating, Kochia” value (kochia) was 100, the “Crabgrass, Brazil plant response rating” value (Brazilian crabgrass; 16 g ai/ha) was 0 and the “Crabgrass, Brazil plant response rating” value (Brazilian crabgrass; 31 g ai/ha) was 0. For the same molecule, the “Crabgrass, Brazil plant response rating” value (Brazilian crabgrass; 62 g ai/ha) was 75, the “Plant response rating, Crabgrass, Brazil” value (Brazilian crabgrass) was 95 and the “Arrowleaf Sida plant response rating” value (arrowleaf sida; 16 g ai/ha, preemergence) was 0. For the same molecule, the “Arrowleaf Sida plant response rating” value (arrowleaf sida; 31 g ai/ha, preemergence) was 5, the “Plant response rating, Arrowleaf Sida” value (arrowleaf sida; Preemergence, 62 g ai/ha) was 60 and the “Plant response rating, Arrowleaf Sida” value (arrowleaf sida; preemergence, 125 g ai/ha) was 100. For the same molecule, the “Beggarticks plant response rating” value (hairy beggarticks; 16 g ai/ha, preemergence) was 0, the “Beggarticks plant response rating” value (hairy beggarticks; 31 g ai/ha, preemergence) was 0 and the “Plant response rating, Beggarticks” value (hairy beggarticks; Preemergence, 62 g ai/ha) was 35. For the same molecule, the “Plant response rating, Beggarticks” value (hairy beggarticks; preemergence, 125 g ai/ha) was 70, the “Nightshade plant response rating” value (nightshade; 16 g ai/ha) was 0 and the “Nightshade plant response rating” value (nightshade; 31 g ai/ha) was 0. For the same molecule, the “Nightshade plant response rating” value (nightshade; 62 g ai/ha) was 0, the “Plant response rating, Nightshade” value (nightshade) was 98 and the “Johnsongrass plant response rating” value (johnsongrass; 16 g ai/ha) was 0. The “Johnsongrass plant response rating” value (johnsongrass; 31 g ai/ha) was 0, the “Johnsongrass plant response rating” value (johnsongrass; 62 g ai/ha) was 65 and the “Plant response rating, Johnsongrass” value (johnsongrass) was 65. The “Plant response rating, Galium” value (galium; 125 g ai/ha) was 100, the “Plant response rating, Galium” value (galium; 500 g ai/ha) was 100 and the “Plant response rating, Ryegrass, Italian” value (Italian ryegrass; 125 g ai/ha) was 80. The “Plant response rating, Ryegrass, Italian” value (Italian ryegrass; 500 g ai/ha) was 100, the “Poinsettia, Wild plant response rating” value (wild poinsettia; 16 g ai/ha) was 0 and the “Poinsettia, Wild plant response rating” value (wild poinsettia; 31 g ai/ha) was 10. The “Poinsettia, Wild plant response rating” value (wild poinsettia; 62 g ai/ha) was 20, the “Plant response rating, Poinsettia, Wild” value (wild poinsettia) was 65 and the “Dayflower, VA plant response rating” value (dayflower; 16 g ai/ha) was 0. For the same molecule, the “Dayflower, VA plant response rating” value (dayflower; 31 g ai/ha) was 0, the “Dayflower, VA plant response rating” value (dayflower; 62 g ai/ha) was 30 and the “Plant response rating, Dayflower, VA” value (dayflower) was 65. The “Field Bindweed plant response rating” value (field bindweed; 16 g ai/ha) was 0, the “Field Bindweed plant response rating” value (field bindweed; 31 g ai/ha) was 10 and the “Field Bindweed plant response rating” value (field bindweed; 62 g ai/ha) was 20. For the same molecule, the “Plant response rating, Field Bindweed” value (field bindweed) was 90, the “Plant response rating, Ragweed” value (ragweed; 125 g ai/ha) was 90 and the “Plant response rating, Ragweed” value (ragweed; 500 g ai/ha) was 100. The “Velvetleaf plant response rating” value (velvetleaf; 16 g ai/ha) was 0, the “Velvetleaf plant response rating” value (velvetleaf; 31 g ai/ha) was 0 and the “Velvetleaf plant response rating” value (velvetleaf; 62 g ai/ha) was 50. The “Plant response rating, Velvetleaf” value (velvetleaf) was 80.
`N#Cc1cccc(Oc2ncc(Br)cn2)c1-n1cc(I)cn1` [Compound 88] was tested, and the “Kochia plant response rating” value (kochia; 16 g ai/ha) was 0, the “Kochia plant response rating” value (kochia; 31 g ai/ha) was 0 and the “Kochia plant response rating” value (kochia; 62 g ai/ha) was 35. The “Plant response rating, Kochia” value (kochia) was 50, the “Crabgrass, Brazil plant response rating” value (Brazilian crabgrass; 16 g ai/ha) was 0 and the “Crabgrass, Brazil plant response rating” value (Brazilian crabgrass; 31 g ai/ha) was 0. For the same molecule, the “Crabgrass, Brazil plant response rating” value (Brazilian crabgrass; 62 g ai/ha) was 60, the “Plant response rating, Crabgrass, Brazil” value (Brazilian crabgrass) was 60 and the “Arrowleaf Sida plant response rating” value (arrowleaf sida; 16 g ai/ha, preemergence) was 30. For the same molecule, the “Arrowleaf Sida plant response rating” value (arrowleaf sida; 31 g ai/ha, preemergence) was 40, the “Plant response rating, Arrowleaf Sida” value (arrowleaf sida; Preemergence, 62 g ai/ha) was 10 and the “Plant response rating, Arrowleaf Sida” value (arrowleaf sida; preemergence, 125 g ai/ha) was 35. For the same molecule, the “Beggarticks plant response rating” value (hairy beggarticks; 16 g ai/ha, preemergence) was 0, the “Beggarticks plant response rating” value (hairy beggarticks; 31 g ai/ha, preemergence) was 0 and the “Plant response rating, Beggarticks” value (hairy beggarticks; Preemergence, 62 g ai/ha) was 0. For the same molecule, the “Plant response rating, Beggarticks” value (hairy beggarticks; preemergence, 125 g ai/ha) was 0, the “Nightshade plant response rating” value (nightshade; 31 g ai/ha) was 0 and the “Plant response rating, Nightshade” value (nightshade) was 0. The “Johnsongrass plant response rating” value (johnsongrass; 16 g ai/ha) was 0, the “Johnsongrass plant response rating” value (johnsongrass; 31 g ai/ha) was 0 and the “Johnsongrass plant response rating” value (johnsongrass; 62 g ai/ha) was 15. For the same molecule, the “Plant response rating, Johnsongrass” value (johnsongrass) was 15, the “Plant response rating, Galium” value (galium; 125 g ai/ha) was 100 and the “Plant response rating, Galium” value (galium; 500 g ai/ha) was 100. The “Plant response rating, Ryegrass, Italian” value (Italian ryegrass; 125 g ai/ha) was 50, the “Plant response rating, Ryegrass, Italian” value (Italian ryegrass; 500 g ai/ha) was 90 and the “Poinsettia, Wild plant response rating” value (wild poinsettia; 16 g ai/ha) was 0. For the same molecule, the “Poinsettia, Wild plant response rating” value (wild poinsettia; 31 g ai/ha) was 0, the “Poinsettia, Wild plant response rating” value (wild poinsettia; 62 g ai/ha) was 0 and the “Plant response rating, Poinsettia, Wild” value (wild poinsettia) was 0. The “Dayflower, VA plant response rating” value (dayflower; 16 g ai/ha) was 0, the “Dayflower, VA plant response rating” value (dayflower; 31 g ai/ha) was 0 and the “Dayflower, VA plant response rating” value (dayflower; 62 g ai/ha) was 0. For the same molecule, the “Plant response rating, Dayflower, VA” value (dayflower) was 60, the “Field Bindweed plant response rating” value (field bindweed; 16 g ai/ha) was 0 and the “Field Bindweed plant response rating” value (field bindweed; 31 g ai/ha) was 0. The “Field Bindweed plant response rating” value (field bindweed; 62 g ai/ha) was 0, the “Plant response rating, Field Bindweed” value (field bindweed) was 50 and the “Plant response rating, Ragweed” value (ragweed; 125 g ai/ha) was 10. The “Plant response rating, Ragweed” value (ragweed; 500 g ai/ha) was 30, the “Velvetleaf plant response rating” value (velvetleaf; 16 g ai/ha) was 0 and the “Velvetleaf plant response rating” value (velvetleaf; 31 g ai/ha) was 0. The “Velvetleaf plant response rating” value (velvetleaf; 62 g ai/ha) was 20 and the “Plant response rating, Velvetleaf” value (velvetleaf) was 65.
